Measurements reported in PubChem BioAssay AID1259407 (Chemical Carcinogenesis Research Information System (CCRIS), 2018).
Calls of active or inactive are those of the source. No rule for the calls is given here.

Test system: CCRIS mutagenicity, Ames/micronucleus/aberration tests
Experiment: CCRIS mutagenicity studies
Details: Test System: AMES SALMONELLA TYPHIMURIUM
[1] = Strain/Indicator: TA97, Metabolic Activation: NONE, Method: PREINCUBATION
[2] = Strain/Indicator: TA98, Metabolic Activation: NONE, Method: PREINCUBATION
[3] = Strain/Indicator: TA100, Metabolic Activation: NONE, Method: STANDARD PLATE
[4] = Strain/Indicator: TA1535, Metabolic Activation: NONE, Method: PREINCUBATION
[5] = Strain/Indicator: TA100, Metabolic Activation: NONE, Method: PREINCUBATION

Measured: mutagenic call

O=NN(CCO)CCO
inactive: Strain/Indicator: TA100, Metabolic Activation: RABBIT, LIVER, S-9, Method: STANDARD PLATE inactive; negative | Strain/Indicator: TA100, Metabolic Activation: RABBIT, LUNG, S-9, Method: STANDARD PLATE inactive; negative | Strain/Indicator: TA100, Metabolic Activation: RAT, LIVER, S-9, Method: STANDARD PLATE inactive; negative | [4] inactive; negative
active: Strain/Indicator: TA97, Metabolic Activation: HAMSTER, LIVER, S-9, AROCLOR 1254 (10%), Method: PREINCUBATION active; positive | [1] active; positive | Strain/Indicator: TA97, Metabolic Activation: RAT, LIVER, S-9, AROCLOR 1254 (10%), Method: PREINCUBATION active; positive | Strain/Indicator: TA98, Metabolic Activation: HAMSTER, LIVER, S-9, AROCLOR 1254 (10%), Method: PREINCUBATION active; positive | [2] active; positive | Strain/Indicator: TA98, Metabolic Activation: RAT, LIVER, S-9, AROCLOR 1254 (10%), Method: PREINCUBATION active; positive | Strain/Indicator: TA100, Metabolic Activation: HAMSTER, LIVER, S-9, AROCLOR 1254 (10%), Method: PREINCUBATION active; positive | [3] active; positive | Strain/Indicator: TA100, Metabolic Activation: RABBIT, NASAL, S-9, Method: STANDARD PLATE active; positive | Strain/Indicator: TA100, Metabolic Activation: RAT, LIVER, S-9, AROCLOR 1254 (10%), Method: PREINCUBATION active; positive | Strain/Indicator: TA100, Metabolic Activation: RAT, LUNG, S-9, Method: STANDARD PLATE active; positive | Strain/Indicator: TA100, Metabolic Activation: RAT, NASAL, S-9, Method: STANDARD PLATE active; positive | Strain/Indicator: TA1535, Metabolic Activation: HAMSTER, LIVER, S-9, AROCLOR 1254 (10%), Method: PREINCUBATION active; positive | Strain/Indicator: TA1535, Metabolic Activation: RAT, LIVER, S-9, AROCLOR 1254 (10%), Method: PREINCUBATION active; positive

O=[N+]([O-])c1cc(CCl)cc([N+](=O)[O-])c1
active: [2] active; positive | Strain/Indicator: TA98, Metabolic Activation: RAT, LIVER, S-9, KANECHLOR 500, Method: PREINCUBATION active; positive | [5] active; positive | Strain/Indicator: TA100, Metabolic Activation: RAT, LIVER, S-9, KANECHLOR 500, Method: PREINCUBATION active; positive

CN(C)/C=N/c1nnc(/C=C/c2ccc([N+](=O)[O-])o2)o1
active: Strain/Indicator: TA100, Metabolic Activation: RAT, LIVER, S-9, KC500 OR PHENOBARBITAL, Method: LIQUID SUSPENSION active; positive

ClC1=C(Cl)[C@]2(Cl)[C@H]3[C@H]([C@@H]4C=C[C@H]3C4)[C@@]1(Cl)C2(Cl)Cl
inactive: Strain/Indicator: TA97, Metabolic Activation: HAMSTER, LIVER, S-9, AROCLOR 1254 (10 OR 30%), Method: PREINCUBATION inactive; negative | [1] inactive; negative | Strain/Indicator: TA97, Metabolic Activation: NONE, Method: STANDARD PLATE inactive; negative | Strain/Indicator: TA97, Metabolic Activation: RAT, LIVER, S-9, AROCLOR 1254 (10 OR 30%), Method: PREINCUBATION inactive; negative | Strain/Indicator: TA97, Metabolic Activation: RAT, LIVER, S-9, AROCLOR 1254, Method: STANDARD PLATE inactive; negative | Strain/Indicator: TA98, Metabolic Activation: HAMSTER, LIVER, S-9, AROCLOR 1254 (10 OR 30%), Method: PREINCUBATION inactive; negative | [2] inactive; negative | Strain/Indicator: TA98, Metabolic Activation: NONE, Method: STANDARD PLATE inactive; negative | Strain/Indicator: TA98, Metabolic Activation: RAT, LIVER, S-9, AROCLOR 1254 (10 OR 30%), Method: PREINCUBATION inactive; negative | Strain/Indicator: TA98, Metabolic Activation: RAT, LIVER, S-9, AROCLOR 1254, Method: STANDARD PLATE inactive; negative | Strain/Indicator: TA100, Metabolic Activation: HAMSTER, LIVER, S-9, AROCLOR 1254 (10 OR 30%), Method: PREINCUBATION inactive; negative | [5] inactive; negative | [3] inactive; negative | Strain/Indicator: TA100, Metabolic Activation: RAT, LIVER, S-9, AROCLOR 1254 (10 OR 30%), Method: PREINCUBATION inactive; negative | Strain/Indicator: TA100, Metabolic Activation: RAT, LIVER, S-9, AROCLOR 1254, Method: STANDARD PLATE inactive; negative | Strain/Indicator: TA102, Metabolic Activation: NONE, Method: STANDARD PLATE inactive; negative | Strain/Indicator: TA102, Metabolic Activation: RAT, LIVER, S-9, AROCLOR 1254, Method: STANDARD PLATE inactive; negative | Strain/Indicator: TA1535, Metabolic Activation: HAMSTER, LIVER, S-9, AROCLOR 1254 (10 OR 30%), Method: PREINCUBATION inactive; negative | [4] inactive; negative | Strain/Indicator: TA1535, Metabolic Activation: RAT, LIVER, S-9, AROCLOR 1254 (10 OR 30%), Method: PREINCUBATION inactive; negative | Strain/Indicator: TA1537, Metabolic Activation: HAMSTER, LIVER, S-9, AROCLOR 1254 (30%), Method: PREINCUBATION inactive; negative | Strain/Indicator: TA1537, Metabolic Activation: NONE, Method: PREINCUBATION inactive; negative | Strain/Indicator: TA1537, Metabolic Activation: RAT, LIVER, S-9, AROCLOR 1254 (30%), Method: PREINCUBATION inactive; negative

Cc1ccc2cccnc2c1
active: Strain/Indicator: TA98, Metabolic Activation: HAMSTER, LIVER, S-9, AROCLOR 1254 (30%), Method: PREINCUBATION active; positive | Strain/Indicator: TA100, Metabolic Activation: HAMSTER, LIVER, S-9, AROCLOR 1254 (30%), Method: PREINCUBATION active; positive | Strain/Indicator: TA100, Metabolic Activation: RAT, LIVER, S-9, AROCLOR 1254 (30%), Method: PREINCUBATION active; positive | Strain/Indicator: TA100, Metabolic Activation: RAT, LIVER, S-9, PHENOBARBITAL AND 5,6-BENZOFLAVONE, Method: PREINCUBATION active; positive | Strain/Indicator: TA100, Metabolic Activation: RAT, LIVER, S-9, PHENOBARBITAL AND 5,6-NAPHTHOFLAVONE, Method: PREINCUBATION active; positive | Strain/Indicator: TA100, Metabolic Activation: RAT, LIVER, S-9, Method: PREINCUBATION active; positive
inactive: [2] inactive; negative | Strain/Indicator: TA98, Metabolic Activation: RAT, LIVER, S-9, AROCLOR 1254 (30%), Method: PREINCUBATION inactive; negative | [5] inactive; negative
